# Data as given in patent US10301320B2, “Compositions and methods of modulating 15-PGDH activity” (CASE WESTERN RESERVE UNIVERSITY, priority 2012, dated 2019).
# “Also recorded” adds a separate entry of the source. Read-outs that look alike come from different tables or passages of the source.
# Legend:
# [1] = tested on: 15-PGDH-luciferase fusion reporter in V9m, LS174T and V503 cell lines; test: 15-PGDH-luciferase fusion gene reporter induction in three colon cancer cell lines (stated jointly); assay type: cell-based
# [2] = target: T1, recombinant 15-PGDH protein (Homo sapiens (Human), UniProt P15428); test: Inhibition of enzymatic activity of recombinant 15-PGDH in vitro; assay type: biochemical; settings: for inhibition at […]: read-out: Enzyme inhibition % ([…]), recombinant 15-PGDH, […] compound;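 for all read-outs here: activity of recombinant human 15-PGDH assayed in vitro using PGE2 as the substrate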
# T1 sequence (P15428 whole entry): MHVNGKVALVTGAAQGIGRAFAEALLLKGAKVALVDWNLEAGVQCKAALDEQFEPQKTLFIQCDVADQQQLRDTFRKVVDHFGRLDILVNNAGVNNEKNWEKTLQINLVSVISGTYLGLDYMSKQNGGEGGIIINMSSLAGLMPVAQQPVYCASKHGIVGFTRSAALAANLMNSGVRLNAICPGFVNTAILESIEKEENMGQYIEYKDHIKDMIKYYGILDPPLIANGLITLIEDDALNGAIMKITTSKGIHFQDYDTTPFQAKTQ
# A549 cells [3] = test: PGE2 levels in medium of IL1-beta stimulated A549 cells; assay type: cell-based; settings: for Effect on PGE2 levels in medium, in words: IL1-beta stimulated A549 cells; for PGE2 levels achieved: IL-1β 16 h, compound 8 h, highest level of titration; for Reduction in levels of PGE2 in the medium, ranking: 100 nM drug, 15-PGDH activators
# A549 cells [4] = test: Cellular toxicity on A549 cells (CellTiter-Glo, cell numbers); assay type: cell-based; settings: for Toxicity, CellTiter-Glo: 24 hours, up to 10 uM in FIG. 38
# Procedure: Time to inhibition refers to the time needed to inhibit the generation of NADH by 15-PGDH from the moment with drug is added into the reaction mix. Delta™ refers to the shift in melting temperature of recombinant 15-PGDH in the presence of drug (with cofactor NADH also present). Concentration of Full Cell Line Reporter Induction refers to the concentration of drug that needs to be added to reporter cell line to achieve maximal induction of the 15-PGDH-luciferase gene fusion reporter cassette, as measured by luciferase assays. Hepatocyte stability refers to the half-life of compound in the presence of hepatocytes in culture. Toxicity refers to the concentration of compound needed to decrease cell numbers in a cell culture assay.
# FIGS. 38(A-C) show assays of cellular toxicity on A549 cells at 24 hours of 15-PGDH inhibitors as assayed by CellTiter-Glo measurement.
# FIGS. 84(A-C) show at left (84A) activity in lowering PGE2 levels in media of A549 cells that are stimulated to produce PGE2 by treatment with IL1-beta.
# [5] = Metabolic stability with murine liver S9; assay type: in vitro ADME
# Procedure: SW054384 (2 mM in DMSO) was incubated with Murine S9 (Lot KWB) fraction and Phase I (NADPH Regenerating System) cofactors for 0-240 minutes. Reactions were quenched with a 1 mL (1:1) of MeOH/(+)IS/0.2% Formic Acid, vortexed for 15 seconds, incubated at RT for 10 minutes and spun for 5 minutes at 2400 rpms. […] Supernatant (800 μL) was transferred to an HPLC vial (w/out insert) and analyzed by HPLC/MS. A: dH2O+0.1% FA B: MeOH+0.1% FA
# SW125991 (2 mM in DMSO) was incubated with Murine S9 (Lot KWB) fraction and Phase I (NADPH Regenerating System) cofactors for 0-240 minutes. Reactions were quenched with 1 mL (1:1) of methanol containing 0.2% formic acid and 100 ng/ml IS (IS final conc.=50 ng/ml). Samples were vortexed for 15 seconds, incubated at RT for 10 minutes and spun for 5 minutes at 2400 rpm. […] Supernatant (800 μL) was transferred to an HPLC vial (w/out insert). Analyzed by Qtrap 3200 mass spectrometer.
# [6] = tested on: V9m reporter cell line expressing a 15-PGDH luciferase fusion construct; test: 15-PGDH-luciferase fusion gene reporter induction, V9m cell line; assay type: cell-based; settings: […], % increased luciferase activity over basal level
# Text: These cell lines are Vaco-9m (V9m), LS174T, Vaco503 (V503). […] Value of 1.0 on the Y-axis is the basal level of reporter activity in cells treated with drug free DMSO vehicle.
# This Example provides data on a group of structural analogues of SW033291. Data provided includes level of induction of a 15-PGDH-luciferase fusion gene reporter, recorded as % increased luciferase activity over basal level, in three colon cancer cell lines, V9m, V503, and LS174T, engineered to contain the reporter, and treated with either 2.5 uM or 7.5 uM compound (i.e., Values are recorded on a scale where 100 indicates of doubling of luciferase activity over baseline level).
# FIGS. 27(A-C) show graphs that show the level of compound's activity in inducing the 15-PGDH-luciferase fusion reporter in three different test cell line backgrounds, V9m, LS174T, and V503. Each compound was tested at two concentrations, 2.5 uM, and 7.5 uM. Y-axis is luciferase activity.
# Data provided include level of induction of a 15-PGDH-luciferase fusion gene reporter, recorded as % induction of luciferase activity over basal level, in three colon cancer cell lines, V9m, V503, and LS174T, engineered to contain the reporter, and treated with either 2.5 uM or 7.5 uM compound. […] Additionally, for selected compounds is recorded the decrease in PGE2 levels in the media of compound treated A549 cells that have been stimulated with IL-1 beta. Additionally recorded for selected compounds is the effect on A549 cell viability as measured by a CellTiter-Glo assay, and the effect of compounds on A549 cell colony formation.
# [7] = target: T1, recombinant 15-PGDH protein; test: Melting temperature shift of recombinant 15-PGDH (SYPRO Orange); assay type: binding
# [8] = tested on: wild-type mouse bone marrow; test: Hematopoietic colonies from bone marrow treated ex vivo; assay type: cell-based; settings: 1 uM, ex vivo on ice for 2 hours; compared with SW033291
# Text: Treated marrow is again then plated into methylcellulose for counting of hematopoietic colonies.
# [9] = tested on: 15-PGDH mRNA in colon cancer cell lines; test: 15-PGDH mRNA levels by real-time PCR; assay type: cell-based; settings: treated colon cancer cell lines, real-time PCR
# Text: In these studies parental cell lines (not containing the 15-PGDH-luciferase reporter) are employed.
# [10] = read-out: Enzyme inhibition % (2.5 μM)
# [11] = read-out: Enzyme inhibition % (7.5 μM)
SMILES,"Induction of 15-PGDH-luciferase reporter, in words [1]","inhibition at […] [2, 10] [%]","inhibition at […] [2, 11] [%]","Effect on PGE2 levels in medium, in words (A549 cells [3])",other results
COc1ccc(OC)c(N(CC(=O)N2CCOCC2)S(=O)(=O)c2ccccc2)c1 [SW125991],retains activity in induction of the 15-PGDH-luciferase reporter assay; also recorded: active in inducing the 15-PGDH-luciferase reporter,11.6,31.6,show activity in lowering PGE2,"Inhibition of recombinant 15-PGDH, in words [2]: less inhibition of 15-PGDH at high compound concentration; also recorded: lesser inhibitory activity at high concentration; Toxicity, CellTiter-Glo (A549 cells [4]): no toxicity; Metabolic stability, in words [5]: marked improvement in metabolic stability"
"CCCC[S+]([O-])c1sc2nc(-c3cccs3)ccc2c1N (stereo not shown) [SW206980, 2-(butylsulfinyl)-6-(thiophen-2-yl)thieno[2,3-b]pyridin-3-amine]",highly active compound in reporter induction; also recorded: activity comparable to SW033291,–,–,–,V9M reporter activity ([…]) [6]: 92.71%; V9M reporter activity ([…]) ([6]; 100 = doubling): 99.37%; PGE2 levels achieved (A549 cells [3]): 2500 pg/mL
"CCCC[S+]([O-])c1sc2nc(-c3nccs3)ccc2c1N (stereo not shown) [SW206992, 2-(butylsulfinyl)-6-(thiazol-2-yl)thieno[2,3-b]pyridin-3-amine]",–,–,–,–,"V9M reporter activity ([…]) [6]: 121.75%; V9M reporter activity ([…]) ([6]; 100 = doubling): 86.44%; Concentration for Full Cell Line Reporter Induction ([1]; maximal induction of reporter, printed in uM): >1 µM; Time to inhibition (10 nM) ([2]; time needed to inhibit generation of NADH after drug is added): ~2 min; Melting temperature ([7]; 15-PGDH 10 uM, compound 20 uM, NAD(+) 100 uM, control 49): 59 degrees; PGE2 levels achieved (A549 cells [3]): 2100 pg/mL; Toxicity, CellTiter-Glo (A549 cells [4]): No effect on CellTitre-Glo levels; Toxicity (A549 cells [4]; concentration needed to decrease cell numbers in a cell culture assay): >7.5 µM"
"CCCCC[C@H](O)/C=C/[C@H]1[C@H](O)CC(=O)[C@@H]1C/C=C\CCCC(=O)O [PGE2, prostaglandin E2]",–,–,–,–,"Increase in bone marrow derived colonies, in words [8]: lesser increase"
"CCCCC(C)(C)[C@H](O)/C=C/[C@H]1[C@H](O)CC(=O)[C@@H]1C/C=C\CCCC(=O)O [dmPGE2, 16,16-dimethyl PGE2]",–,–,–,–,"Increase in bone marrow derived colonies, in words [8]: slightly greater increase"
COc1ccc(S(=O)(=O)N(CC(=O)N2CCCCCC2)c2cc(OC)ccc2OC)cc1 [SW207998],"activity equal to, or in some assays greater than, SW054384; also recorded: active in inducing the 15-PGDH-luciferase reporter",8.09,14.4,–,"Inhibition of recombinant 15-PGDH, in words [2]: much less inhibition of enzymatic activity of 15-PGDH; also recorded: lesser inhibitory activity at high concentration; Reduction in levels of PGE2 in the medium, ranking (A549 cells [3]): greatest reduction in levels of PGE2"
COc1ccc(S(=O)(=O)N(CC(=O)N2CCOCC2)c2cc(OC)ccc2OC)cc1 [SW207997],"activity equal to, or in some assays greater than, SW054384; also recorded: active in inducing the 15-PGDH-luciferase reporter",-7.08,-0.86,–,"Inhibition of recombinant 15-PGDH, in words [2]: much less inhibition of enzymatic activity of 15-PGDH; also recorded: lesser inhibitory activity at high concentration; Reduction in levels of PGE2 in the medium, ranking (A549 cells [3]): greatest reduction in levels of PGE2"
COc1ccc(OC)c(N(CC(=O)Nc2csnc2C)S(=O)(=O)c2ccccc2)c1 [SW203703],active in inducing the 15-PGDH-luciferase reporter,26.5,58.9,show activity in lowering PGE2,–
O=C(c1ccc2nc(-c3ccccc3)c(-c3ccccc3)nc2c1)N1CCCCC1 [SW145753],increase luciferase activity,–,–,clear inhibition of 15-PGDH activity,15-PGDH mRNA levels [9]: do not in general alter 15-PGDH mRNA levels
COc1ccc(OC)c(N(CC(=O)Nc2cccnc2)S(=O)(=O)c2ccccc2)c1 [SW054384],increase luciferase activity,20.2,58.2,lower level of PGE2 produced; also recorded: show activity in lowering PGE2,"IC50 fold higher than that of SW033291 ([2]; FIG. 12): 10,000 fold; Direct binding to recombinant 15-PGDH ([7]; melting temperature shift): cannot be demonstrated to bind 15-PGDH; 15-PGDH mRNA levels [9]: do not in general alter 15-PGDH mRNA levels"
COc1ccc(OC)c(N(CC(=O)Nc2cccnc2)S(=O)(=O)c2ccc(Br)cc2)c1 [SW203737],active in inducing 15-PGDH-luciferase reporter activity; also recorded: active in inducing the 15-PGDH-luciferase reporter,23.8,42.5,show activity in lowering PGE2,–
